We go through two compounds from patent US20260209135A1, “METHOD OF FORTIFYING FERTILIZER WITH LIPO-CHITOOLIGOSACCHARIDE (LCO)” (priority 2022, published 2026).

Series [1] has as its system Cabbage. The series is described as follows: Cabbage microplot trial, WSF fortified with LCO (Example 1). The conditions noted are these: average, vs control (only WSF). It counts as in vivo, Cabbage (Enza zaden variety). As to the method:
Cabbage seedling (Enza zaden variety) were transplanted on 16 Oct. 2020 and the experiment was completed by end of December 2020. Experiment was conducted in 3*3 microplots in 9 replications for treatment and control, microplots were distributed in a completed random block experimental design. Treatment was imposed by fertigation at 3 times point with doses divided in to 22, 39 and 39% respectively (Table 6). Plants were grown by following the standard package of practices developed by the university of Agricultural Science Bangalore. [table] Treatment was in a complete random block design, with 9 replications per treatment. Following parameter/observation was recorded: • 1. Plant number per plot • 2. Fruit weight per plot • 3. Fruit weight per plant • 4. Vertical circumference • 5. Radial circumference Data were analysed with JMP software by comparing means using all pairs Tukey HSD. Error bars shown in graphs are SD. Bar graphs represent the mean. Different alphabet indicates significant difference between the treatment.

Series [2] relates to Green gram (Vigna radiata). The series is described as follows: Green gram seedlings treated with LCO: root length. The conditions noted are these: vs control seedlings without LCO, FIG. 28. It counts as in vivo. From the text: (§1) FIG. 28 represents a graph showing root length measured @ 10 DAS in beans, horse gram and green gram seedlings: untreated control and treated with LCO.

In series [3] the test system is Cabbage. The series is described as follows: Cabbage microplot trial, granular fertilizer fortified with LCO (Example 4). It counts as in vivo, Cabbage (Enza zaden variety).
For series [4], the system named is Corn. The series is described as follows: Corn pot study, LCO and urease inhibitor fortified urea and WSF (Example 6). It counts as in vivo. The conditions noted are these: urea study. As to the method:
NBPT (N-(n-butyl) thiophosphoric triamide) was suspended in propylene glycol (PG) and dimethyl sulphoxide (DMSO) in the ratio of 20:50:30. In the current experiment two different doses of NBPT was fortified to the fertilizers, low dose consisting of 400 ppm and high dose 800 ppm was fortified per Kg of fertilizer.
The fortifying mixture consists of 0.7 ml of LCO (1.90e-5) and 2 ml of NBPT (400 ppm) was fortified to 1 Kg of fertilizer. Whereas another fortifying mixture consists of 0.7 ml of LCO (1.90e-5) and 4 ml of NBPT (800 ppm) was fortified to 1 Kg of fertilizer. After fortification samples were taken for conducting pot trails.
A pot study was conducted for evaluating LCO and Urease inhibitor fortified Urea and WSF on an experimental crop. Corn was selected as a subject crop for the pot study. The experiment consists of 13 treatments as listed below. The pot study is done in pots of 2 Kg soil capacity. The experiment duration is 20 days.
• 1. Untreated Control • 2. WSF • 3. WSF+LCO • 4. WSF+LCO+UI (Low-400 ppm) • 5. […]
From the onset of the experiment plant height and chlorophyll was measured at every 10th, 15th, and 20th day after sowing. Plant height and dry biomass of leaves and root were measured manually using scales, whereas chlorophyll was measured using chlorophyll meter. Leaf area was calculated based on the dry weight method, by developing a dry-weight weight versus leaf area curve for corn leaf samples of known area.
Available nitrogen from the soil was estimated from the soil samples using wet aggregate analysis method of estimation. […] The available nitrogen is expressed as kg/ha.
Total nitrogen as percent was determined from the dried plant samples using Kjeldahl method of estimation. The total nitrogen in plant is expressed as percentage. Nitrogen uptake was calculated by multiplying the shoot biomass with the nutrient concentration. Nitrogen use efficiency (NUE) is determined as the percent of the applied nitrogen that was taken up by the plants.
From the onset of the experiment plant height and chlorophyll was measured every 5 days interval starting from 10th DAS. […]

Series [5] concerns finger millet (Eleusine coracana) seedlings. The series is described as follows: Ragi seedlings treated with LCO: root hairs and root length. Format: in vivo. From the text: FIG. 27 represents a graph showing number of root hairs in seedlings of ragi @ 3 DAS: untreated control (UTC) and treated with LCO.
(§2) FIG. 29 represents a graph showing root length measured @ 4 DAS in ragi and rice seedlings: untreated control and treated with LCO.

A further series deals with Capsicum. The series is described as follows: Capsicum net house trial, WSF fortified with LCO (Example 2). The conditions noted are these: fortification of WSF with LCO vs WSF only. Format: in vivo, Capsicum (Diana variety).
In series [6] the test system is White French Beans seedlings. The series is described as follows: Seedling bioassay in tubes, WSF (19:19:19) fortified with LCO (Example 3). Format: in vivo. Particulars: 10 days. As to the method: [table] Locally available beans variety were used for the study. Experiment was conducted in 50 ml falcon tube filled with soilrite which acts as growing substrate. Treatment solution as given in the table were prepared in demineralised water and 10 ml of respective solution were applied to each tube after sowing (2.5 cm depth). Fortified, unfortified WSF and LCO were tested at 2 doses along with absolute control. Subsequently, the seedlings were maintained under […] (200 […], 12 hrs light and dark), ambient temperature of 25 degree Celsius. The tubes were incubated for 10 days and irrigated with water as and when required. After 10 days, the experiment was terminated and the plants were phenotyped for recording the traits vz Hypocotyl length, epicotyl length, shoot length and root length.

Series [7] has as its system Corn. The series is described as follows: Corn microplot trial, granular fertilizer fortified with LCO (Example 5). Particulars: LCO at 22.5 ml per bag of GF, over control. It counts as in vivo, Maize. As to the method: Maize seeds were sown directly to microplot on 29 Oct. 2020 and the experiment was completed by third week of January 2021. Experiment was conducted in 3*3 microplots in 7 replications for treatment and 6 replications for control, microplots were distributed in a completed random block experimental design. Treatment was imposed by fertigation at 2 times point with doses divided in to 50% each first at time of transplanting and second one at 40 days after transplanting (Table 11). Plants were grown by following the standard package of practices developed by the university of Agricultural Science Bangalore, for further details information have a look at the crop calendar (Table 11). [table] Treatment was in a complete random block design, with 7 replications per treatment and 6 replication per control. Following parameter/observation WAS recorded: • 1. Plant number per plot • 2. Plant height • 3. Chlorophyll content • 4. Stem girth • 5. Cob number • 6. Cob dry weight • 7. Yield/grain weight per plot or plant Data were analysed with JMP software by comparing means using all pairs Tukey HSD. Error bars shown in graphs are SD. Bar graphs represent the mean. Different alphabet indicates significant difference between the treatment. […] FIG. 8: Plant height were measured at three different time point viz 33, 53 and 138 days after sowing, data represented here are means and error bar represent standard deviation. NS denotes no significant difference between the treatment.

The subject of series [8] is Horse gram (Macrotyloma uniflorum). Put plainly: Horse gram seedlings treated with LCO: root length. Particulars: vs control seedlings without LCO, FIG. 28. It counts as in vivo.
Text: as §1

The subject of the next series is Rice (Oryza sativa). Put plainly: Rice seedlings treated with LCO: root length. It counts as in vivo. The conditions noted are these: vs control seedlings without LCO, FIG. 29.
Text: as §2

For series [9], the system named is Cabbage. Put plainly: Cabbage field study, bulk granular fertilizer with LCO (Example 7). Format: in vivo. Particulars: bulk fertilizer combined with LCO compared to fertilizer alone. As to the method:
The field experiment was conducted at an agricultural farm in Bangalore in Rabi season of 2020. The study was conducted in randomized complete block design with 7 treatments and 7 replications per treatment with each plot measuring approximately 9 m^2 in area (Table-12 & 13). Cabbage seedlings of a popular variety was used for the trial. Different grades of bulk fertilizers were available in market generally sold in 50 kg packages. The N:P:K-19:19:19 grade bulk fertilizer was used for the current study. Treatments of LCO fortified bulk fertilizer with 3 doses of LCO 11.25 ml, 22.5 ml, and 33.75 ml were formulated per 50 kg bag of fertilizer. The application dose was calculated based on the crop and standard fertilizer recommendation to the select crop. About 50% of calculated quantity of fertilizers were applied to the crop on a per plot basis as basal application at the time of planting and rest of the quantity of each treatment was applied at 40 days after transplanting (DAT). [table] […] The yield per plot was measured by weighing all the heads harvested from each plot. The vertical and horizontal diameter of the head was measured using a measuring tape and the volume of each cabbage head was calculated by the following formula V=4/3·π·(a)^2·b • Where, • V=Volume of the head • a=Horizontal diameter of the head • b=Vertical diameter of the head

Series [10] deals with Beans (Phaseolus vulgaris L). Put plainly: Beans seedlings treated with LCO: root length. It counts as in vivo. Particulars: vs control seedlings without LCO, FIG. 28.
Text: as §1

Series [11] relates to Corn. The series is described as follows: Corn field study, bulk granular fertilizer with LCO (Example 8). Particulars: bulk fertilizer combined with LCO compared to fertilizer alone. It counts as in vivo. As to the method: The field experiment was conducted at an agricultural farm in Bangalore in Rabi season of 2020. The study was conducted as randomized complete block design with 7 treatments with 9 replications and each plot measured about 9 m^2 in area. Hybrid corn seeds of a popular brand was used for the trial. Different grades of Bulk fertilizers are available in market generally sold in 50 kg packages. The N:P:K-19:19:19 grade bulk fertilizer was used for the current study. Bulk fertilizer was combined with 3 doses of LCO at the rate of 11.25 ml, 22.5 ml, and 33.75 ml per 50 kg bag of fertilizer. The application dose was calculated based on the crop and standard fertilizer recommendation to the select crop. About 50% quantity of the treatments were applied to the crop as basal application at the time of planting and rest of the quantity for each treatment was applied at 40 DAS. [table] [table] The trial was harvested in January 2021, when the cobs were fully matured. The yield parameters such as number of cobs per plot and cob yield per plot were recorded. The number of cobs per plot was normalized based on plant density per plot. The cobs of each plot were threshed separately and grain weight per plot was recorded and interpreted as Kg per plot normalized to number of plants per plot.

The conditions of series [12]: at low pH; cited from earlier work.

With `CCCCCC/C=C\CCCCCCCCCC(=O)N[C@H]1[C@H](O[C@H]2[C@H](O)[C@@H](NC(C)=O)[C@H](O[C@H]3[C@@H](O)[C@@H](NC(C)=O)[C@H](O[C@H]4[C@H](O)[C@@H](NC(C)=O)[C@H](O[C@H]([C@H](O)[C@H](C=O)NC(C)=O)[C@H](O)CO)O[C@@H]4CO)O[C@@H]3O)O[C@@H]2CO)O[C@H](CO)[C@@H](O)[C@@H]1O` [LCO, Lipo-chitooligosaccharide], the increase in yield with Cabbage [1] (cabbage yield (kg/plot), LCO with or without proxel) was determined as 7%. In the series on Cabbage [1] (cabbage, WSF 19:19:19 with LCO with or without proxel), this compound returned an increase in circumference of 2%. Besides, the “root length, result in words” value in series [2] is “increases the length of roots”. Besides, the “cabbage circumference, result in words” value in the series on Cabbage [3] (GF fortified with LCO vs control (only GF)) was “marginal increase in circumference of cabbage heads”. The same compound came in with an increase in circumference in the series on Cabbage [3] (cabbage, GF 19:19:19 with LCO with or without proxel, average, vs control (only GF)) of 0.4%. The “total nitrogen (leaf nitrogen content), result in words” value in the series on Corn [4] (20 days old corn seedlings, Kjeldahl, FIG. 22) was “much higher than urea+UI at 400 ppm and equal to urea+UI at 800 ppm”. The “leaf dry weight, result in words” value in the series on Corn [4] (corn seedlings, 20 DAS, FIG. 18) was “better than WSF alone”. Moreover, the “leaf area, result in words” value with Corn [4] (corn seedlings, 20 DAS, FIG. 20) is “better than WSF alone”. In addition, in series [5] (3 days after treatment, vs untreated control, FIG. 27), the “number of root hairs, result in words” value is recorded as “increase root hairs”. Further, the “root length, result in words” value in series [5] (vs control seedlings without LCO, FIG. 29) was “increases the length of roots”. Besides, the “capsicum yield, result in words” value in the series on Capsicum is “increase in yield, even though there is no statistically significant difference”. Also, in series [6] (concentration 8.75E−12 %), the Epicotyl length came to 1.75 cm, the Hypocotyl length is on record as 9 cm, the Root length was determined as 12.12 cm and the “Shoot length (hypocotyl + Epicotyl length)” value is 10.77 cm. In series [6] (concentration 8.75E−14 %), the Epicotyl length came out at 1.87 cm, the Hypocotyl length worked out at 8.3 cm, the Root length came out at 13.41 cm and the “Shoot length (hypocotyl + Epicotyl length)” value stood at 10.26 cm. In the series on Corn [7], the “increase in cob weight per plot” value was at most 10, the “increase in grain weight per plot” value is at most 9 and the “increase in number of cobs per plant” value is at most 18%. In addition, the “root length, result in words” value in [8] is reported as “increases the length of roots”. The “root length, result in words” value in the series on Rice (Oryza sativa) is listed as “increases the length of roots”. Further, the “average volume of cabbage heads, result in words” value in the series on Cabbage [9] is “enhanced average volume of cabbage heads”. Further, the “root length, result in words” value in series [10] was “increases the length of roots”. In the series with Corn [11], the “average number of cobs per plot, result in words” value was “enhanced” and the “grain yield per plot, result in words” value was “enhanced”.

In the case of `CCCCNP(N)(N)=S` [NBPT, N-(n-butyl) thiophosphoric triamide], in series [12], the “time within which decayed” value was at most 24 h.
